Tested on: PPARγ-sensitive genes
Assay: Microarray of primary macrophages transfected with control or NCoR siRNA
Format: cell-based
Conditions: NCoR siRNA vs control siRNA
Experimental: To determine how widely the SUMOylation/NCoR-dependent pathway is utilized by PPARγ to repress inflammatory response genes, microarray studies were performed in primary macrophages transfected with control siRNAs or siRNAs directed against NCoR mRNA.

SMILES: CN(CCOc1ccc(CC2SC(=O)NC2=O)cc1)c1ccccn1 (stereo not shown) [rosiglitazone]
- PPARγ-sensitive genes whose repression by ligand was abolished by knockdown of NCoR: 80%

Source: patent publication US8241863B2, “Identification of an evolutionarily conserved pathway mediating transrepression of inflammatory response genes by nuclear receptors” (The Regents of the University of California, priority 2005, dated 2012)
